Measured values reported in patent US10813944B2, “Cyclodextrins as procoagulants” (STICHTING SANQUIN BLOEDVOORZIENING, priority 2016, dated 2020).

Columns and labels:
Format in all cases: biochemical, human
[1] = test system: thrombin generation in pooled normal plasma; experiment: Calibrated Automated Thrombogram thrombin generation assay in pooled normal plasma; conditions: no anticoagulant; cyclodextrin 100 μM unless otherwise indicated; 1 pM TF
Protocol: (§1) FIGS. 3-8, 12, 14-19 and 22-27: Pooled normal plasma was spiked with cyclodextrins (100 μM, unless otherwise indicated) and anticoagulants. The concentrations of the anticoagulants were 100 ng/ml for dabigatran (A), 100 ng/ml for rivaroxaban (B), 60 ng/ml for apixaban (C), 60 ng/ml for edoxaban (D). The plasmas were subjected to thrombin generation analysis as described in the Materials and Methods section with 1 pM tissue factor (TF) as initiator of coagulation.
(§2) The Calibrated Automated Thrombogram® assays the generation of thrombin in clotting plasma using a microtiter plate reading fluorometer (Fluoroskan Ascent, ThermoLab systems, Helsinki, Finland) and Thrombinoscope® software (Thrombinoscope BV, Maastricht, The Netherlands). The assay was carried out as described by Hemker et al. (Pathofysiol. IIaemost. Thromb. 2003, 33, 4-15), and the Thrombinoscope® manual. Coagulation was triggered by recalcification in the presence of 1 or 5 pM recombinant human tissue factor (Innovin®, Siemens, Marburg, Germany), 4 μM phospholipids, and 417 μM fluorogenic substrate Z-Gly-Gly-Arg-AMC (Bachem, Bubendorf, Switzerland). Fluorescence was monitored using the Fluoroskan Ascent fluorometer (ThermoLabsystems, Helsinki, Finland), and the lag time, peak thrombin, velocity index and area under the curve (ETP) were calculated using the Thrombinoscope® software (Thrombinoscope BV).
Thrombin generation analyses were performed in pooled normal plasma with and without the addition of anticoagulants.

[2] = test system: plasma deficient in coagulation factor VIII; experiment: Thrombin generation assay in plasma deficient in coagulation factor VIII
Protocol: FIG. 20: Plasma deficient in coagulation factor VIII was spiked with cyclodextrin OKL-1111 (A), OKL-1180 (B), and OKL-1187 (C) at the indicated concentrations.
as §2

[3] = test system: plasma deficient in coagulation factor IX; experiment: Thrombin generation assay in plasma deficient in coagulation factor IX
Protocol: as §2

[4] = test system: thrombin generation in pooled normal plasma spiked with anticoagulants; experiment: Thrombin generation assay in pooled normal plasma spiked with anticoagulants; conditions: for effect on the anticoagulant effect of apixaban: apixaban 60 ng/ml; for effect on the anticoagulant effect of apixaban / effect on the anticoagulant effect of dabigatran / effect on the anticoagulant effect of edoxaban / effect on the anticoagulant effect of rivaroxaban: cyclodextrin 100 μM, 1 pM TF; for effect on the anticoagulant effect of dabigatran: dabigatran 100 ng/ml; for effect on the anticoagulant effect of edoxaban: edoxaban 60 ng/ml; for effect on the anticoagulant effect of rivaroxaban: rivaroxaban 100 ng/ml
Protocol: as §1
FIG. 9: Pooled normal plasma was spiked with OKL-1111 (100 μM, unless otherwise indicated (A)) and anticoagulants (B-E). The concentrations of the anticoagulants were 100 ng/ml for dabigatran (B), 100 ng/ml for rivaroxaban (C), 60 ng/ml for apixaban (D), 60 ng/ml for edoxaban (E). The plasmas were subjected to thrombin generation analysis as described in the Materials and Methods section with 1 pM tissue factor (TF) as initiator of coagulation.
FIG. 10: Pooled normal plasma was spiked with OKL-1111 (100 μM) and anticoagulants (A-F). The concentrations of the anticoagulants were 2 μg/ml for fondaparinux (A), 0.4 U/ml for nadroparin (B), 0.1 U/ml for tinzaparin (C), 0.03 U/ml for unfractionated heparin (UFH) (D), 0.5 U/ml for hirudin (E) and 10 μg/ml for bivalirudin (F). The plasmas were subjected to thrombin generation analysis as described in the Materials and Methods section with 1 pM tissue factor (TF) as initiator of coagulation.
as §2

Compound	procoagulant effect in normal plasma [1]	procoagulant effect in factor VIII deficient plasma [2]	procoagulant activity in factor IX deficient plasma [3]	procoagulant effect in plasma containing anticoagulants (not specified / NOACs) [4]	effect on the anticoagulant effect of apixaban [4]	effect on the anticoagulant effect of dabigatran [4]	effect on the anticoagulant effect of edoxaban [4]	effect on the anticoagulant effect of rivaroxaban [4]
O=C(O)CCCCSCC1OC2OC3C(CSCCCCC(=O)O)OC(OC4C(CSCCCCC(=O)O)OC(OC5C(CSCCCCC(=O)O)OC(OC6C(CSCCCCC(=O)O)OC(OC7C(CSCCCCC(=O)O)OC(OC8C(CSCCCCC(=O)O)OC(OC9C(CSCCCCC(=O)O)OC(OC1C(O)C2O)C(O)C9O)C(O)C8O)C(O)C7O)C(O)C6O)C(O)C5O)C(O)C4O)C(O)C3O (centres unmarked) [OKL-1171]	significant procoagulant activity	procoagulant effects	–	–	–	–	–	–
O=C(O)CCCCCCSCC1OC2OC3C(CSCCCCCCC(=O)O)OC(OC4C(CSCCCCCCC(=O)O)OC(OC5C(CSCCCCCCC(=O)O)OC(OC6C(CSCCCCCCC(=O)O)OC(OC7C(CSCCCCCCC(=O)O)OC(OC8C(CSCCCCCCC(=O)O)OC(OC9C(CSCCCCCCC(=O)O)OC(OC1C(O)C2O)C(O)C9O)C(O)C8O)C(O)C7O)C(O)C6O)C(O)C5O)C(O)C4O)C(O)C3O (centres unmarked) [OKL-1172]	significant procoagulant activity	procoagulant effects	procoagulant activity	–	–	–	–	–
OCCCCSCC1OC2OC3C(CSCCCCO)OC(OC4C(CSCCCCO)OC(OC5C(CSCCCCO)OC(OC6C(CSCCCCO)OC(OC7C(CSCCCCO)OC(OC8C(CSCCCCO)OC(OC9C(CSCCCCO)OC(OC1C(O)C2O)C(O)C9O)C(O)C8O)C(O)C7O)C(O)C6O)C(O)C5O)C(O)C4O)C(O)C3O (centres unmarked) [OKL-1174]	strong procoagulant effects	procoagulant effects	procoagulant activity	strong procoagulant effects	–	–	–	–
OCCCSCC1OC2OC3C(CSCCCO)OC(OC4C(CSCCCO)OC(OC5C(CSCCCO)OC(OC6C(CSCCCO)OC(OC7C(CSCCCO)OC(OC8C(CSCCCO)OC(OC1C(O)C2O)C(O)C8O)C(O)C7O)C(O)C6O)C(O)C5O)C(O)C4O)C(O)C3O (centres unmarked) [OKL-1181]	significant procoagulant activity	procoagulant effects	procoagulant activity	–	–	–	–	–
O=C(O)CCCCCSCC1OC2OC3C(CO)OC(OC4C(CO)OC(OC5C(CO)OC(OC6C(CO)OC(OC7C(CO)OC(OC1C(O)C2O)C(O)C7O)C(O)C6O)C(O)C5O)C(O)C4O)C(O)C3O (stereo not drawn) [OKL-1186, Alpha-mono-S—C6-acid]	substantial procoagulant effect	–	–	–	antagonized	antagonized	antagonized	antagonized
O=C(O)CCCCCCSCC1OC2OC3C(CO)OC(OC4C(CO)OC(OC5C(CO)OC(OC6C(CO)OC(OC7C(CO)OC(OC8C(CO)OC(OC1C(O)C2O)C(O)C8O)C(O)C7O)C(O)C6O)C(O)C5O)C(O)C4O)C(O)C3O (centres unmarked) [OKL-1188]	strong procoagulant effect	procoagulant effects	procoagulant activity	–	antagonized	antagonized	antagonized	antagonized
O=C(O)CCCCCCSCC1OC2OC3C(CO)OC(OC4C(CO)OC(OC5C(CO)OC(OC6C(CO)OC(OC7C(CO)OC(OC8C(CO)OC(OC9C(CO)OC(OC1C(O)C2O)C(O)C9O)C(O)C8O)C(O)C7O)C(O)C6O)C(O)C5O)C(O)C4O)C(O)C3O (centres unmarked) [OKL-1190]	procoagulant effect	–	–	–	antagonized	antagonized	antagonized	antagonized
